What was measured:
[1] = test system: CHIKV (strain 181/25mKate); assay: microbe, parasite or virus in culture; format: cell-based; details: Chikungunya virus, NHDF, 72 h, read-out: titer redn, log
[2] = Cytotoxicity assay (CellTiter Glo) in NHDF cells; details: human, CC50, NHDF cells, maximum 40 μM

CC(C)N1CCN(c2cc3nc([C@@H]4CCCCN4)n(-c4ccc(Cl)cc4)c(=O)c3cc2Cl)CC1 [(S)-1x]
log reduction at 10 µM [1]: 3.4 | CC50 at 72 h [2]: 16.5 µM

CC(C)N1CCN(c2cc3nc([C@@H]4CCCNC4)n(-c4ccc(F)cc4)c(=O)c3cc2Cl)CC1 [(R)-1u]
log reduction at 10 µM [1]: 2.1 | CC50 at 72 h [2]: 23.8 µM

COc1c(F)cc(-n2c([C@H]3CCCNC3)nc3cc(N4CCNCC4)c(Cl)cc3c2=O)cc1F [(S)-1n]
log reduction at 10 µM [1]: 0.8 | CC50 at 72 h [2]: 13.7 µM

COc1ccc(-n2c([C@H]3CCCN3)nc3c(C)cc([N+](=O)[O-])cc3c2=O)cc1 [BDGR-49, reference compound]
log reduction at 10 µM [1]: 0

COc1c(F)cc(-n2c([C@@H]3CCCN3)nc3cc(N4CCN(C(C)C)CC4)c(Cl)cc3c2=O)cc1F [(S)-1d]
log reduction at 10 µM [1]: 1.3 | CC50 at 72 h [2]: > 40 µM

COc1c(F)cc(-n2c([C@@H]3CCCCN3C)nc3cc(N4CCN(C(C)C)CC4)c(Cl)cc3c2=O)cc1F [(S)-1z]
log reduction at 10 µM [1]: 0.5 | CC50 at 72 h [2]: 36.5 µM

COc1c(F)cc(-n2c([C@@H]3CCCN3)nc3cc(N4CCN(C)CC4)c(Cl)cc3c2=O)cc1F [(S)-1c]
log reduction at 10 µM [1]: 1 | CC50 at 72 h [2]: > 40 µM

COc1c(F)cc(-n2c([C@@H]3CCCN3)nc3cc(N4CCN(C(C)C)CC4)c(F)cc3c2=O)cc1F [(S)-1b]
log reduction at 10 µM [1]: 0.64 | CC50 at 72 h [2]: > 40 µM

COc1c(F)cc(-n2c([C@H]3CCCNC3)nc3cc(N4CCC(N5CCN(C)CC5)CC4)c(Cl)cc3c2=O)cc1F [(S)-1p]
log reduction at 10 µM [1]: 1.8 | CC50 at 72 h [2]: 12.1 µM

COc1c(F)cc(-n2c([C@@H]3CCCNC3)nc3cc(N4CCNCC4)c(Cl)cc3c2=O)cc1F [(R)-1n]
log reduction at 10 µM [1]: 0.7 | CC50 at 72 h [2]: 16.5 µM

COc1c(F)cc(-n2c([C@@H]3CCCN(C)C3)nc3cc(N4CCN(C(C)C)CC4)c(Cl)cc3c2=O)cc1F [(R)-1y]
log reduction at 10 µM [1]: 1.3 | CC50 at 72 h [2]: 23.6 µM

COc1c(F)cc(-n2c([C@@H]3CCCNC3)nc3cc(N4CCC(N5CCN(C)CC5)CC4)c(Cl)cc3c2=O)cc1F [(R)-1p]
log reduction at 10 µM [1]: 2.5 | CC50 at 72 h [2]: 13.1 µM

COc1c(F)cc(-n2c([C@@H]3CCCNC3)nc3cc(N4CCN(C(C)C)CC4)c(Cl)cc3c2=O)cc1F [(R)-1g]
log reduction at 10 µM [1]: 2.3 | CC50 at 72 h [2]: 16.2 µM

COc1c(F)cc(-n2c([C@H]3CCCN3)nc3cc(N4CCNCC4)c(Cl)cc3c2=O)cc1F [(R)-1e]
log reduction at 10 µM [1]: 2.1 | CC50 at 72 h [2]: 24.9 µM

COc1c(F)cc(-n2c([C@@H]3CCCN3)nc3cc(N4CCNCC4)c(Cl)cc3c2=O)cc1F [(S)-1e]
log reduction at 10 µM [1]: 1.6 | CC50 at 72 h [2]: 22.8 µM

COc1ccc(-n2c([C@@H]3CCCNC3)nc3cc(N4CCN(C(C)C)CC4)c(Cl)cc3c2=O)cc1 [(R)-1t]
log reduction at 10 µM [1]: 1.4 | CC50 at 72 h [2]: 29.3 µM

COc1c(F)cc(-n2c([C@H]3CCCNC3)nc3cc(N4CCN(C5CCN(C)CC5)CC4)c(Cl)cc3c2=O)cc1F [(S)-1l]
log reduction at 10 µM [1]: 1.2 | CC50 at 72 h [2]: 11.4 µM

COc1c(F)cc(-n2c(-c3cccnc3)nc3cc(N4CCN(C(C)C)CC4)c(Cl)cc3c2=O)cc1F [1ad]
log reduction at 10 µM [1]: 0 | CC50 at 72 h [2]: > 40 µM

COc1c(F)cc(-n2c([C@@H]3CCCN(c4ccccc4)C3)nc3cc(N4CCN(C(C)C)CC4)c(Cl)cc3c2=O)cc1F [(R)-1aa]
log reduction at 10 µM [1]: 0 | CC50 at 72 h [2]: > 40 µM

COc1c(F)cc(-n2c([C@H]3CCCN3)nc3cc(N4CCN(C)CC4)c(F)cc3c2=O)cc1F [(R)-1a]
log reduction at 10 µM [1]: 0.1 | CC50 at 72 h [2]: > 40 µM

CC(C)N1CCN(c2cc3nc([C@H]4CCCNC4)n(C)c(=O)c3cc2Cl)CC1 [(S)-1r]
log reduction at 10 µM [1]: 0.7 | CC50 at 72 h [2]: > 40 µM

CC(C)N1CCN(c2cc3nc([C@@H]4CCCNC4)n(-c4ccccc4)c(=O)c3cc2Cl)CC1 [(R)-1s]
log reduction at 10 µM [1]: 0.9 | CC50 at 72 h [2]: > 40 µM

COc1c(F)cc(-n2c([C@@H]3CCCN3)nc3cc(N4CCN(C)CC4)c(F)cc3c2=O)cc1F [(S)-1a]
log reduction at 10 µM [1]: 0.3 | CC50 at 72 h [2]: > 40 µM

COc1c(F)cc(-n2c([C@@H]3CCCCN3)nc3cc(N4CCN(C(C)C)CC4)c(Cl)cc3c2=O)cc1F [(S)-1h]
log reduction at 10 µM [1]: 1.7 | CC50 at 72 h [2]: 34.8 µM

COc1c(F)cc(-n2c([C@H]3CCCNC3)nc3cc(N4CCN(C(C)(C)C)CC4)c(Cl)cc3c2=O)cc1F [(S)-1j]
log reduction at 10 µM [1]: ~3 | CC50 at 72 h [2]: 8.9 µM

COc1c(F)cc(-n2c([C@H]3CCCNC3)nc3cc(N4CCC(N5CCOCC5)CC4)c(Cl)cc3c2=O)cc1F [(S)-1o]
log reduction at 10 µM [1]: 0.3 | CC50 at 72 h [2]: 30.1 µM

CC(C)N1CCN(c2cc3nc([C@@H]4CCCNC4)n(-c4cccc(Cl)c4)c(=O)c3cc2Cl)CC1 [(R)-1w]
log reduction at 10 µM [1]: 2.7 | CC50 at 72 h [2]: 18 µM

CC(C)N1CCN(c2cc3nc([C@H]4CCCCN4)n(-c4ccc(Cl)cc4)c(=O)c3cc2Cl)CC1 [(R)-1x]
log reduction at 10 µM [1]: 5.2 | CC50 at 72 h [2]: 12 µM

COc1c(F)cc(-n2c([C@H]3CCCCN3C)nc3cc(N4CCN(C(C)C)CC4)c(Cl)cc3c2=O)cc1F [(R)-1z]
log reduction at 10 µM [1]: 0.4 | CC50 at 72 h [2]: > 40 µM

COc1c(F)cc(-n2c([C@H]3CCN3)nc3cc(N4CCN(C(C)C)CC4)c(Cl)cc3c2=O)cc1F [(R)-1f]
log reduction at 10 µM [1]: 0.1 | CC50 at 72 h [2]: > 40 µM

COc1c(F)cc(-n2c(C3CCNCC3)nc3cc(N4CCN(C(C)C)CC4)c(Cl)cc3c2=O)cc1F [1i]
log reduction at 10 µM [1]: 0.95 | CC50 at 72 h [2]: 29.1 µM

COc1c(F)cc(-n2c([C@@H]3CCCNC3)nc3cc(N4CCN(C(C)(C)C)CC4)c(Cl)cc3c2=O)cc1F [(R)-1j]
log reduction at 10 µM [1]: 1.1 | CC50 at 72 h [2]: 17.1 µM

COc1c(F)cc(-n2c([C@H]3CCCNC3)nc3cc(N4CCN(C(C)C)CC4)c(Cl)cc3c2=O)cc1F [(S)-1g]
log reduction at 10 µM [1]: 2.9 | CC50 at 72 h [2]: 11.7 µM

COc1c(F)cc(-n2c(-c3ccccn3)nc3cc(N4CCN(C(C)C)CC4)c(Cl)cc3c2=O)cc1F [1ac]
log reduction at 10 µM [1]: 0 | CC50 at 72 h [2]: > 40 µM

COc1c(F)cc(-n2c([C@H]3CCCNC3)nc3cc(N(C)CCN(C)C)c(Cl)cc3c2=O)cc1F [(S)-1q]
log reduction at 10 µM [1]: 1.2 | CC50 at 72 h [2]: 16.3 µM

COc1c(F)cc(-n2c([C@H]3CCCN3)nc3cc(N4CCN(C)CC4)c(Cl)cc3c2=O)cc1F [(R)-1c]
log reduction at 10 µM [1]: 0.5 | CC50 at 72 h [2]: > 40 µM

COc1c(F)cc(-n2c([C@@H]3CCN3)nc3cc(N4CCN(C(C)C)CC4)c(Cl)cc3c2=O)cc1F [(S)-1f]
log reduction at 10 µM [1]: 0 | CC50 at 72 h [2]: > 40 µM

CC(C)N1CCN(c2cc3nc([C@@H]4CCCNC4)n(C)c(=O)c3cc2Cl)CC1 [(R)-1r]
log reduction at 10 µM [1]: 0.5 | CC50 at 72 h [2]: > 40 µM

COc1c(F)cc(-n2c([C@H]3CCCN(C)C3)nc3cc(N4CCN(C(C)C)CC4)c(Cl)cc3c2=O)cc1F [(S)-1y]
log reduction at 10 µM [1]: 1.1 | CC50 at 72 h [2]: 29.1 µM

COc1c(F)cc(-n2c([C@@H]3CCCNC3)nc3cc(N4CCN(c5ccccc5)CC4)c(Cl)cc3c2=O)cc1F [(R)-1k]
log reduction at 10 µM [1]: > 4 | CC50 at 72 h [2]: 11.3 µM

COc1c(F)cc(-n2c([C@@H]3CCCNC3)nc3cc(N4CCC(N5CCOCC5)CC4)c(Cl)cc3c2=O)cc1F [(R)-1o]
log reduction at 10 µM [1]: 1.1 | CC50 at 72 h [2]: 20.6 µM

COc1c(F)cc(-n2c([C@H]3CCCNC3)nc3cc(N4CCN(C)CC4)c(Cl)cc3c2=O)cc1F [(S)-1m]
log reduction at 10 µM [1]: 1 | CC50 at 72 h [2]: 24.8 µM
